In ChEMBL document CHEMBL3596095, “Design, synthesis, and biological activity of phenyl-pyrazole derivatives as BCR-ABL kinase inhibitors” (Bioorg Med Chem, 2015):

What was measured:
Bcr/Abl fusion protein = Bcr/Abl fusion protein (Homo sapiens, UniProt P00519); test: Inhibition of BCR-ABL1 (unknown origin) assessed as ATP remaining by Kinase-Glo luminescent kinase assay
K562 = test: cells; assay type: functional, cell-based; details: Homo sapiens, K562, 48 h
Description: Antitumor activity against human K562 cells assessed as inhibition of cell growth after 48 hrs by MTT assay

Bcr/Abl fusion protein, sequence (P00519 whole entry, the tested form may be a part): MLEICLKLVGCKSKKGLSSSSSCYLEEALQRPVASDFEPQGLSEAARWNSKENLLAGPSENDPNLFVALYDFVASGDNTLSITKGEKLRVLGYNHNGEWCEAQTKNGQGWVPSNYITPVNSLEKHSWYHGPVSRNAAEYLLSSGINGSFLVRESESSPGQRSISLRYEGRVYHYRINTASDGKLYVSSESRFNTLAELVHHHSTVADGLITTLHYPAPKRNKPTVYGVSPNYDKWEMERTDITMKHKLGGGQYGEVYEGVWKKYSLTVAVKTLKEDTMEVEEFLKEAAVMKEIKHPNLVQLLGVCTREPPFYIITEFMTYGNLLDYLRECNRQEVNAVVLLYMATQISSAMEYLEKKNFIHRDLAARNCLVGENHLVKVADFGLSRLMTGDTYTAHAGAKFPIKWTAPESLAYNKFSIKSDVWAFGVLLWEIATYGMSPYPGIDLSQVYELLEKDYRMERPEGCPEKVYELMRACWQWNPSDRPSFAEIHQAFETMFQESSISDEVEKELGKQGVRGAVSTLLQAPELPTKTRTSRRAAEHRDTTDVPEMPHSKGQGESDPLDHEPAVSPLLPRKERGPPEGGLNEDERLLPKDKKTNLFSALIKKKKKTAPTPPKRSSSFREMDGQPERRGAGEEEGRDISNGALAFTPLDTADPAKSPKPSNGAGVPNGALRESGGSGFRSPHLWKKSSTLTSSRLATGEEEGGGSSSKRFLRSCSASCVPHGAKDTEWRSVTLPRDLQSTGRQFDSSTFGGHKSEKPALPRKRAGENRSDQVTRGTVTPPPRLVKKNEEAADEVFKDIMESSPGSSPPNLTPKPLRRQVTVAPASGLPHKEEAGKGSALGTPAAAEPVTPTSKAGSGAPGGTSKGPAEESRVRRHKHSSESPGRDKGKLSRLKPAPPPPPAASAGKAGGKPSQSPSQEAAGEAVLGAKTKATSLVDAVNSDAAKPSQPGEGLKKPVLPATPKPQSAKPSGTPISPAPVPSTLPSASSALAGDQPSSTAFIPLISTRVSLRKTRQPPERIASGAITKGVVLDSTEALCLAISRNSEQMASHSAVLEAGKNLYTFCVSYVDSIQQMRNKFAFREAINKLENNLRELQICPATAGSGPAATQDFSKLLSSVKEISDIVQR
Bcr/Abl fusion protein, sequence (P11274 whole entry, further chain, the tested form may be a part): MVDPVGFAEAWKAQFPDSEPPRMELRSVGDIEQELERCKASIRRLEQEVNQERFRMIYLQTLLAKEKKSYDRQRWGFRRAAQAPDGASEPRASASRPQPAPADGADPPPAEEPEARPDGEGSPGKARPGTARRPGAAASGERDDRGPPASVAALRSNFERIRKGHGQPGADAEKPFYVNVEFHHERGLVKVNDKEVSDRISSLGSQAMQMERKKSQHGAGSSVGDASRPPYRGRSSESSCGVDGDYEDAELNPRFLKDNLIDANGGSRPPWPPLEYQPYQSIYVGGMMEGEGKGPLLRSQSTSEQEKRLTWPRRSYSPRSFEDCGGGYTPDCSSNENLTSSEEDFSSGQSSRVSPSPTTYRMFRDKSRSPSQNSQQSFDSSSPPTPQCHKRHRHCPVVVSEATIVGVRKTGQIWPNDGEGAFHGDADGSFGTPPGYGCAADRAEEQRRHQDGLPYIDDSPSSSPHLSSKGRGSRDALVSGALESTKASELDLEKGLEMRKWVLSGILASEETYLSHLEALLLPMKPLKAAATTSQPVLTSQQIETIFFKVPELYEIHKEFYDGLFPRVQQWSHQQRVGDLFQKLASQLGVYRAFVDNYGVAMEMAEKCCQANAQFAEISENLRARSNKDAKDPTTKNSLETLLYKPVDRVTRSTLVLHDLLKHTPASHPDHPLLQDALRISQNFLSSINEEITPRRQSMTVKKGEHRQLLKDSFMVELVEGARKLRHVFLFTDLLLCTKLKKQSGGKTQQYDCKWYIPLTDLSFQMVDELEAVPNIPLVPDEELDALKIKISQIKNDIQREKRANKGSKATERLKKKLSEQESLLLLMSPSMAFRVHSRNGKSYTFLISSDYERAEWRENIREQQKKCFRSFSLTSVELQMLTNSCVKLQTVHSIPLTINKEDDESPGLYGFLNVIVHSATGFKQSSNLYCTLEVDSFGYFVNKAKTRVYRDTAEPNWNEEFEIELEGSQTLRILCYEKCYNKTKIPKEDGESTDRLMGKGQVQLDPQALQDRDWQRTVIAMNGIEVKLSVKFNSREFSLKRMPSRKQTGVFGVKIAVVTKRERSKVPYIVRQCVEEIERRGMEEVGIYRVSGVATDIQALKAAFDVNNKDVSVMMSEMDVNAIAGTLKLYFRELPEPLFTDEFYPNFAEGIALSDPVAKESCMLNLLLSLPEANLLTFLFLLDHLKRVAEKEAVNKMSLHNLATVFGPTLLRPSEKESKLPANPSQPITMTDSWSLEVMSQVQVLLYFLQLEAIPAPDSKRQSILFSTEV

Row | SMILES | IC50 (Bcr/Abl fusion protein) | IC50 (K562)
1 | Cc1ccc(NC(=O)c2cccc(Cl)c2)cc1-n1cc(-c2cccnc2)cn1 | 15.9 nM | 1320 nM
2 | Cc1ccc(NC(=O)c2ccc(CN3CCN(CCO)CC3)cc2)cc1-n1cc(-c2cccnc2)cn1 | 175 nM | 98300 nM
3 | Cc1ccc(NC(=O)c2cccc(C(F)(F)F)c2)cc1-n1cc(-c2cccnc2)cn1 | 14.2 nM | 270 nM
4 | Cc1ccc(NC(=O)c2ccc(F)cc2)cc1-n1cc(-c2cccnc2)cn1 | 214 nM | 12500 nM
5 | CCN(CC)Cc1ccc(C(=O)Nc2ccc(C)c(-n3cc(-c4cccnc4)cn3)c2)cc1 | 129 nM | 3260 nM
6 | Cc1ccc(NC(=O)c2ccc(CN3CCCN(C)CC3)cc2)cc1-n1cc(-c2cccnc2)cn1 | 26.6 nM | 8650 nM
7 | Cc1ccc(NC(=O)c2ccc(C(F)(F)F)cc2)cc1-n1cc(-c2cccnc2)cn1 | 43.3 nM | 760 nM
8 | CCc1ccc(C(=O)Nc2ccc(C)c(-n3cc(-c4cccnc4)cn3)c2)cc1 | 41 nM | 6520 nM
9 | COc1ccc(C(=O)Nc2ccc(C)c(-n3cc(-c4cccnc4)cn3)c2)cc1 | 46.2 nM | 18300 nM
10 | Cc1ccc(NC(=O)c2ccc(CN3CCCC3)cc2)cc1-n1cc(-c2cccnc2)cn1 | 117 nM | 2740 nM
11 | CCN1CCN(Cc2ccc(C(=O)Nc3ccc(C)c(-n4cc(-c5cccnc5)cn4)c3)cc2)CC1 | 16.9 nM | 2330 nM
12 | Cc1ccc(NC(=O)c2ccc(CN3CCN(C)CC3)cc2)cc1-n1cc(-c2cccnc2)cn1 | 50.6 nM | 1670 nM
13 | Cc1ccc(NC(=O)c2ccc(Cn3ccnc3)cc2)cc1-n1cc(-c2cccnc2)cn1 | 326 nM | 136000 nM
14 | Cc1ccc(NC(=O)c2ccc(CN3CCOCC3)cc2)cc1-n1cc(-c2cccnc2)cn1 | 178 nM | 21500 nM
